# Legend:
# [1] = test system: Maize (variety: A188) immature embryos; assay: Effect of auxin type in coculture medium on Agrobacterium-mediated transformation efficiency (GUS-positive plants / inoculated immature embryos); format: cell-based; settings: for transformation efficiency relative to control (2,4-D), in words / transformation efficiency: auxin 1.5 mg/l in coculture medium, Agrobacterium LBA4404 (pSB131); for transformation efficiency: coculture in the dark at 25° C. for 7 days, 33 to 35 immature embryos per test
# Excerpt: (§1) Transformation efficiency can be determined by any calculation method commonly used by those skilled in the art, for example, can be determined from a value calculated by dividing the number of transformed plants by the number of Agrobacterium-inoculated explants.
# FIG. 1 is a graph showing the effect of auxin type in a coculture medium on transformation efficiency in maize. 33 to 35 immature embryos were provided for each test. The vertical axis represents the transformation efficiency (calculated by dividing the number of GUS-positive plants obtained in each test by the number of inoculated immature embryos), while the horizontal axis represents the type of auxin contained in the coculture medium. The auxin concentration in the coculture medium was set to 1.5 mg/l for each test.
# Maize (variety: A188) immature embryos (1.0 to 1.5 mm in size) at 7 to 14 days after pollination were aseptically collected and washed once with LS-inf liquid medium (Non-patent Publication No. 11), followed by pretreatment (thermal treatment at 46° C. for 3 minutes and centrifugation at 15,000 rpm for 10 minutes) to increase gene transfer efficiency. In LS-inf liquid medium containing 100 μM acetosyringone, Agrobacterium strain LBA4404 (pSB131) (Non-patent Publication No. 11) was suspended at about 1.0×10^9 cfu/ml to prepare an inoculum. The thermally-treated and centrifuged immature embryos were mixed with the inoculum, vortexed for 30 seconds, and then allowed to stand for 5 minutes at room temperature. The Agrobacterium-inoculated immature embryos were placed, with their embryonic discs facing up, onto a coculture medium containing 2,4,5-T (2,4,5-trichlorophenoxyacetic acid), picloram (4-amino-3,5,6-trichloropicolinic acid), TIBA (2,3,5-triiodobenzoic acid) or dicamba at a concentration of 1.5 mg/l in IS-AS medium (Non-patent Publication No. 11; solidified with 8 g/l agarose) which had been prepared to exclude 2,4-D and contain 5 μM AgNO3 and 5 μM CuSO4. A control medium was prepared to contain 5 μM AgNO3 and 5 μM CuSO4 in LS-AS medium (solidified with 8 g/l agarose).
# The immature embryos cultured in the dark at 25° C. for 7 days were placed onto LSD1.5 medium (Non-patent Publication No. 11) containing 5 μM AgNO3, 5 mg/l phosphinothricin (PPT), 250 mg/l carbenicillin and 100 mg/l cefotaxime, and then cultured in the dark at 25° C. for 10 days. The immature embryos were transferred to the same medium, except that the PPT concentration was set to 10 mg/l, and cultured under the same conditions for 3 weeks. The grown calli were excised with a surgical knife, placed onto a fresh medium of the same composition, and cultured under the same conditions for 3 weeks. The grown calli were excised, placed onto LSZ medium (Non-patent Publication No. 11) containing 10 μM CuSO4 and 5 mg/l PPT, and cultured in the light at 25° C. for about 2 weeks. Along with determining the number of immature embryos which regenerated into whole plants, leaves of the regenerated plants were partially excised, immersed in 0.1 M phosphate buffer (pH 6.8) containing 0.1% Triton X-100 and allowed to stand at 37° C. for 1 hour. The phosphate buffer was removed and then replaced with another phosphate buffer containing 1.0 mM 5-bromo-4-chloro-3-indolyl-β-D-glucuronic acid (X-gluc) and 20% methanol. After incubation at 37° C. for 24 hours, GUS gene expression was examined.
# [2] = test system: immature embryos (variety: A188); assay: Effect of dicamba and 2,4-D in coculture medium on transformation efficiency (drop inoculation); format: cell-based, Maize; settings: for transformation efficiency: auxin 1.5 mg/l in coculture medium, Agrobacterium LBA4404 (U0009B) with hydroxyapatite, 25 to 26 immature embryos per test
# Excerpt: as §1
# FIG. 3 is a graph showing the effect of auxin type in a coculture medium on transformation efficiency in maize (drop inoculation). 25 to 26 immature embryos were provided for each test. The vertical axis represents the transformation efficiency (calculated by dividing the number of GUS-positive plants obtained in each test by the number of inoculated immature embryos), while the horizontal axis represents the type of auxin contained in the coculture medium. The auxin concentration in the coculture medium was set to 1.5 mg/l for each test.
# The vector U0009B shown in FIG. 2 and SEQ ID NO: 1 was constructed by adding necessary elements to a vector having pSB11 (Non-patent Publication No. 27) as a skeletal structure. An inoculum (1 ml) of Agrobacterium strain LBA4404 (U0009B) prepared in the same manner as shown in Example 1 was supplemented with about 80 mg of hydroxyapatite (Bio-Rad). […] A control medium was prepared to contain 5 μM AgNO3 and 5 μM CuSO4 in LS-AS medium (solidified with 8 g/l agarose). After shaking with a vortex mixer to ensure a uniformly dispersed state of hydroxyapatite in the inoculum, 5 μl of the inoculum was added dropwise onto the immature embryos. After the inoculum added dropwise was dried, the immature embryos were transferred to another site on the same medium. After the culture container was sealed, coculture was performed in the dark at 25° C. for 7 days. The cocultured immature embryos were cultured in the same manner as shown in Example 1 to obtain regenerated plants, along with examining GUS gene expression in leaves of the regenerated plants.
# maize = settings: 15 μM dicamba vs 6.75 μM 2,4-D; media also differ in other components (silver nitrate); cited from earlier work
# maize immature embryos = settings: 15 μM dicamba vs 4.5 μM 2,4-D; cited from earlier work
Compound,"transformation efficiency relative to control (2,4-D), in words [1]",transformation efficiency [1] [%],transformation efficiency [2] [%],other results
"O=C(O)c1cc(I)cc(I)c1I [TIBA, 2,3,5-triiodobenzoic acid]",produced no transformed plant,–,–,–
"O=C(O)COc1cc(Cl)c(Cl)cc1Cl [2,4,5-T, 2,4,5-trichlorophenoxyacetic acid]",lower than that of the control,–,–,–
"Nc1c(Cl)c(Cl)nc(C(=O)O)c1Cl [picloram, 4-amino-3,5,6-trichloropicolinic acid]",lower than that of the control,–,–,–
"O=C(O)COc1ccc(Cl)cc1Cl [2,4-D, 2,4-dichlorophenoxyacetic acid]",–,20.6,11.5,–
"COc1c(Cl)ccc(Cl)c1C(=O)O [dicamba, 3,6-dichloro-o-anisic acid]",–,27.3,28.0,"transformation efficiency, dicamba medium vs 2,4-D medium (maize): higher; increase in the transformation efficiency compared to the conventional method using 2,4-D ([1]; dicamba 1.5 mg/l in coculture medium, 27.3/20.6): 1.33 fold; formation rate of calli having regeneration ability, compared to 2,4-D (maize immature embryos): increased; increase in the transformation efficiency compared to the conventional method using 2,4-D ([2]; dicamba 1.5 mg/l, 28.0/11.5): 2.43 fold"

# Source: patent publication US20100068812A1, “METHOD FOR INCREASING TRANSFORMATION EFFICIENCY IN PLANTS, COMPRISING COCULTURE STEP FOR CULTURING PLANT TISSUE WITH COCULTURE MEDIUM CONTAINING 3, 6-DICHLORO-O-ANISIC ACID” (Japan Tobacco Inc., priority 2007, published 2010)
